Assay results reported in patent US9387199B2, “Compositions and methods for treating clostridium infection and preventing recurrence of infection” (priority 2013, dated 2016).

Tests used:
C. difficile VPI 10463 [1] = assay: Murine model of C. difficile infection and treatment (clinical score, survival, relapse), Example 1; settings: for deaths prevented during the acute infection period: untreated infected survival 38%
C. difficile = settings: with drug use; cited from earlier work
C. difficile VPI 10463 [2] = assay: Histopathology scoring of cecal and colonic tissues in the murine CDI model; format: in vivo, C57BL/6 mice
[3] = uninfected mice, 5-day course of drug alone
C. difficile NAP1/BI/027 = settings: infections due to NAP1/BI/027, treated subjects; cited from earlier work
C. difficile VPI 10463 [4] = assay: Cecal clostridial (tcdB qPCR) and toxin (TcdA/TcdB ELISA) burden in the murine CDI model; format: in vivo, C57BL/6 mice
Protocol: Food and water were allowed ad libitum. […] Stool specimens were collected daily.
Genomic DNA was extracted from the stool or cecal samples using a modified protocol for the QIAamp DNA stool minikits (Qiagen). Stool lysis buffer (400 μl) was added to a frozen stool sample-diluent (from enzyme-linked immunosorbent assay [ELISA]) mixture. Samples were then vortexed for 15 s and incubated at 82.5° C. for 5 min. The samples were vortexed for another 15 s and then centrifuged at 14,000 rpm for 2 min. The supernatant was added to a clean 1.5-ml microcentrifuge tube. Thirty microliters of proteinase K was added to the wall of each tube, followed by 400 μl of lysis buffer. Samples were vortexed for 15 s and then incubated at 70° C. for 10 min. After incubation, 400 μl of 100% ethanol was added to each sample and then mixed by vortexing. A total of 650 μl of the sample was then added to a spin column provided in the kit and centrifuged at 14,000 rpm for 1 min. The remaining volume of each sample was then added to the spin column and centrifuged under the same conditions. The samples were washed first with 500 μl of AW1 buffer and centrifuged at 14,000 rpm for 1 min and then with 500 μl of AW2 buffer and centrifuged at 14,000 rpm for 3 min. The DNA was eluted by adding 200 μl of elution buffer to the spin column and then centrifuging at 14,000 rpm for 1 min.

IgG = system: IgG; parameters: species or system mice; settings: mouse, in vivo
[5] = 20 mg/kg oral gavage daily for 5 days
[6] = first week after infection, 20 mg/kg oral gavage daily for 5 days, infected controls 5.7±0.9
[7] = second week postinoculation, infected control 2.7±0.9, uninfected 1.6±0.26

**Q.** What does the source list for `Cc1ncc([N+](=O)[O-])n1CCO` [metronidazole]?
**A.** infected mice that relapsed (C. difficile VPI 10463 [1]; 20 mg/kg/day for 5 days): none; weight loss or diarrhea while on antibiotics (C. difficile VPI 10463 [1]; 20 mg/kg/day for 5 days, infected mice): had diarrhea and weight loss during treatment; mice that died of infection during treatment (C. difficile VPI 10463 [1]; 20 mg/kg/day for 5 days, 6 mice per group): one mouse; recurrence rate (C. difficile): ≤ 50%

**Q.** With `CC(=O)Oc1ccccc1C(=O)Nc1ncc([N+](=O)[O-])s1` [nitazoxanide] as the compound, how does the “deaths prevented during the acute infection period” value (C. difficile VPI 10463 [1]; [5]) read?
**A.** 60%

**Q.** What about the mean clinical score (C. difficile VPI 10463 [1]; [6]) of the same compound?
**A.** 5±1

**Q.** And the “additional deaths in post-acute infection period” value (C. difficile VPI 10463 [1]; second week postinfection, 20 mg/kg daily for 5 days)?
**A.** no additional deaths were noted

**Q.** And the histopathology score (C. difficile VPI 10463 [2]; first week postinoculation, 20 mg/kg daily, untreated infected 12.5±0.7, max score 15)?
**A.** 11.53±0.9

**Q.** And the histopathology score (C. difficile VPI 10463 [2]; [7])?
**A.** 4.2±0.6

**Q.** What does the source list for `CNC(CC(C)C)C(=O)NC1C(=O)NC(CC(N)=O)C(=O)NC2C(=O)NC3C(=O)NC(C(=O)NC(C(=O)O)c4cc(O)cc(O)c4-c4cc3ccc4O)C(O)c3ccc(c(Cl)c3)Oc3cc2cc(c3OC2OC(CO)C(O)C(O)C2OC2CC(C)(N)C(O)C(C)O2)Oc2ccc(cc2Cl)C1O` (stereo not drawn) [vancomycin]?
**A.** deaths prevented during the acute infection period (C. difficile VPI 10463 [1]; [5]): 100%; clinical score until recurrence of disease (C. difficile VPI 10463 [1]; 20 mg/kg/day for 5 or 10 days, both treatment groups): < 1; infected mice that relapsed (C. difficile VPI 10463 [1]; 20 mg/kg/day for 5 days): 67%; mortality rate, 10-day versus 5-day course (C. difficile VPI 10463 [1]; 20 mg/kg/day for 10 days): higher mortality rate; time from end of treatment to relapse (C. difficile VPI 10463 [1]; 20 mg/kg/day, 5-day treatment course): 4 days; time from discontinuation to relapse (C. difficile VPI 10463 [1]; 20 mg/kg/day, 10-day treatment course): 3 days; weight loss and clinical outcomes by duration of treatment (C. difficile VPI 10463 [1]; 50 mg for 1 day only, versus 2, 3, 5 days): least weight loss and best clinical outcomes; overall mortality rate (C. difficile VPI 10463 [1]; 50 mg given for 5 days, infected controls 75%): 100%; deaths (C. difficile VPI 10463 [1]; by day 9 and onwards, after 5-day treatment at 20 mg/kg): 62%; mean clinical score (C. difficile VPI 10463 [1]; [6]): 1.7±0.3; mean clinical score (C. difficile VPI 10463 [1]; second week postinfection, 20 mg/kg daily for 5 days, surviving untreated infected mice 2.6): 6.2±0.2; weight loss or increase in disease score [3]: did not show weight loss or an increase in disease score; histopathology score (C. difficile VPI 10463 [2]; at the peak of infection (day 3), uninfected control 2.2±1): 4.5±1.6; histopathology score (C. difficile VPI 10463 [2]; [7]): 9.3±0.9; rate of recurrence (C. difficile NAP1/BI/027): 23.6%; C. difficile DNA (tcdB) and toxin levels in cecal specimens (C. difficile VPI 10463 [4]; day 3 (peak of infection)): low; clostridial burden in cecal specimens (C. difficile VPI 10463 [4]; day 6 (1 day after antibiotic was discontinued), persisted on days 9 and 12): increased clostridial burden; IgG levels, low dose versus high dose (IgG): higher IgG levels
